From patent US20110263539A1, “SHIP 1 MODULATOR COMPOUNDS” (THE UNIVERSITY OF BRITISH COLUMBIA, priority 2006, published 2011)

Assays:
SHIP C2 domain = test: Protein lipid overlay assay; assay type: binding; details: 4 μM Compound 100
Procedure: Protein lipid overlay (PLO) assays were performed essentially as described with minor modifications. Lyophilized phosphatidylinositol-3,4-bisphosphate diC16 (PIP2, Echelon Biosciences, Salt Lake City, Utah) was reconstituted in a 2:1.8 solution of methanol and water. PVDF membranes (Millipore, Missisauga, Ont) were initially wetted in methanol for 1 minute, and washed 3×5 min with water, and gently agitated in TBST buffer (20 mM Tris pH 7.5, 0.15 M NaCl (TBS) with 0.05% Tween 20) at 23° C. overnight. Treated membranes were air-dried and dilutions of reconstituted lipids were spotted in 1 μl aliquots to give the indicated amount of PIP2 per membrane spot. Membranes were dried completely and blocked with blocking buffer (3% BSA in TBS with 0.05% NaN3) for 1 h at 23° C. Purified, recombinant C2 domain was diluted into blocking buffer (5 μM final) and treated with 4 μM Compound 100 or EtOH control for 30 min at 23° C. prior to overnight incubation with the PIP2 spotted membranes. […] After washing, bound proteins were detected and quantified on a Li-Cor Odyssey scanner (Lincoln, Nebr.).
Isolated recombinant, His6-tagged C2 domain was expressed and its PI-3,4-P2 binding ability was determined using protein lipid overlay assays. Purified C2 domain was incubated with membrane strips spotted with PI-3,4-P2 and bound protein detected using an anti-His6 antibody. […]

[1] = Initial toxicology studies; assay type: in vivo; details: data not shown
Excerpt: A novel paradigm for inhibiting PI3K signaling through activation of the phosphatases that negatively regulate this pathway is provided. SHIP is a particularly good target for immune/hematopoietic disorders because of its restricted expression to hematopoietic cells. Because the relative activity of phosphatases present in a cell will influence the efficacy of kinase inhibitors, as discussed by Knight and Shokat, SHIP agonists may also be used to potentiate the activation of PI3K inhibitors and promote tissue targeting of PI3K inhibitors to the ematopoietic/immune cell compartment.

MM cell lines = test: In vitro Multiple Myeloma (MM) assay (Assay 7); assay type: cell-based; as to Assay Number 7: In vitro Multiple Myeloma (MM) assay: key: a ‘+’ indicates a positive result for desired activity; a ‘−’ indicates a negative result for desired activity
Procedure: Assay 7) In vitro Multiple Myeloma (MM) assay. The ability of SHIP activators to reduce tumor cell survival was assessed in MM cell lines treated with the test compound. The lines OPM1, OPM2, MM.1S and RPMI 8226 were plated at a density of 1×10^5 cells/mL in 200 μL of medium with various concentrations of the test compound, and viable cell numbers were determined on day 3 and day 5 by trypan blue exclusion. The lines RPMI 8226 and U266 were plated at a density of 1×10^6 cells/mL in 250 μL of medium with various concentrations of the test compound. At day 4, the medium of each culture was replaced by fresh medium containing the same concentration of test compound. At day 7, the viable cell number of each culture was determined by trypan blue exclusion.
MM cell lines were cultured in 96 well plates seeded with 3×10^4 cells suspended in 200 μL of medium along with various concentrations of test compound (and associated cyclodextran vehicle control), with LY294002 serving as a positive control in the experiments. After 24-48 hrs of culture, […] of [3H]-thymidine (GE Healthcare, Baie D'Urfe, Canada) being added for the final 8 hours. Cells were harvested and DNA associated radioactivity was measured via liquid scintillation counting using a Wallac Microbeta counter (Perkin-Elmer; Boston, Mass.).
The ability of SHIP activators to reduce tumor cell survival was assessed in multiple myeloma (MM) cell lines treated with Compound 100 or AQX-016A. The lines OPM1, OPM2, MM.1S and RPMI 8226 were plated at a density of 1×10^5 cells/mL in 200 μL of medium with various concentrations of Compound 100, and viable cell numbers were determined on day 3 and day 5 by trypan blue exclusion. The lines RPMI 8226 and U266 were plated at a density of 1×10^6 cells/mL in 250 μL of medium with various concentrations of AQX-016A. At day 4, the medium of each culture was replaced by fresh medium containing the same concentration of AQX-016A. At day 7, the viable cell number of each culture was determined by trypan blue exclusion. Experiments were performed in triplicate.
Proliferation (DNA synthesis) assays. Proliferation was measured by measuring incorporation of [^3H]-thymidine into cells. MM cell lines were cultured in 96 well plates seeded with 3×10^4 cells suspended in 200 μL, of medium along with various concentrations of Compound 100 or AQX-016A (and associated cyclodextran vehicle control), with LY294002 serving as a positive control in the indicated experiments. After 24-48 hrs of culture, 1 μCi of [^3H]-thymidine (GE Healthcare, Baie D'Urfe, Canada) being added for the final 8 hours. Plates were frozen, which also aided in cell lysis, to terminate the experiments. Cells were then harvested onto glass fibre filters using an automatic cell harvester (TomTech; Orange, Conn.) and DNA associated radioactivity was measured via liquid scintillation counting using a Wallac Microbeta counter (Perkin-Elmer; Boston, Mass.). Wells were set up in triplicate and data is expressed as mean+/−SEM.

- binding of C2 domain to PI-3,4-P2 (SHIP C2 domain): inhibited
SMILES: Cc1cc(O)cc2c1[C@]1(C)CCC3C(C)(C)CCC[C@]3(C)[C@H]1C2 (stereo partly shown) [Compound 100]
- peripheral blood cell counts or bone marrow progenitor numbers [1]: do not significantly affect
- Assay Number 7: In vitro Multiple Myeloma (MM) assay (MM cell lines): +
- MM proliferation (MM cell lines; viable cell numbers, trypan blue exclusion): inhibits MM proliferation at lower concentrations than AQX-016A
